We go through 61 compounds from patent publication US8278337B2, “Substituted pyridines that are JNK inhibitors” (Merck Sharp & Dohme, priority 2006, dated 2012).

“And” between values parts separate entries of the source, which are not always exact repeats. Equal entries are not always repeated. Where two headings read alike, the source gives them in different places.

The target of this assay is JNK1 (Homo sapiens, UniProt P45983). As to the kind of experiment: DELFIA kinase assay, JNK1. Format: biochemical. As to the method: Assay DELFIA (Dissociation Enhanced Lanthanide Fluorescence Immuno-Assay) Assay:
Before initiation of kinase reactions, compounds were pre-incubated with the enzyme for 10 minutes. Pre-incubation reactions contained 50 mM HEPES pH 7.3, 10 mM MgCl2, 1 mM DTT, 75 mM NaCl, 1 mM EDTA, 1 mM EGTA, 0.01% CHAPS, 2 nM JNK1, 6 ug/mL biotinylated GST-ATF2, 0.1 mg/ml BSA, 5% DMSO and 0-100 μM compound in a total volume of 40 μL. After a 10 minute room temperature pre-incubation, 10 μL of 35 μM ATP was added to start the reaction (final concentration of ATP=7 uM). Reactions were incubated at room temperature for 30 minutes. A small aliquot (10 uL) was taken and quenched by adding into 190 uL of DELFIA Assay buffer containing 100 mM EDTA. The amount of phosphate transferred to biotinylated GST-ATF2 was measured using the Dissociation Enhanced Lanthanide Fluorescence Immuno-assay (DELFIA) from Perkin Elmer according to manufacturers protocol. Briefly, biotinylated GST-ATF2 was captured on streptavidin coated plates for 1 hour, washed twice, then incubated for 1 hour with a 1:1000 dilution of rabbit-anti-phospho-ATF2 antibody and a 1:3500 dilution of Europium-labeled anti-rabbit secondary antibody. Free antibody was removed with six washes, Europium was dissociated from the antibody, and Europium fluorescence was measured using an excitation wavelength of 340 nm and an emission wavelength of 615 nm. JNK2 and JNK3 kinase reactions were carried out similarly, with the exception that the final concentration of ATP was 4 uM and 2 uM, respectively.

Where [1] appears, read: DELFIA, biotinylated GST-ATF2 substrate, 10 minute pre-incubation, final ATP 7 uM.
Where [2] appears, read: DELFIA assay, 2 nM JNK1, 7 uM ATP, 10 min pre-incubation, second table, read-out: JNK 1 IC50.
[3] abbreviates: DELFIA assay, 2 nM JNK1, 7 uM ATP, 10 min pre-incubation.

Sequence of JNK1 (P45983 whole entry, species assumed): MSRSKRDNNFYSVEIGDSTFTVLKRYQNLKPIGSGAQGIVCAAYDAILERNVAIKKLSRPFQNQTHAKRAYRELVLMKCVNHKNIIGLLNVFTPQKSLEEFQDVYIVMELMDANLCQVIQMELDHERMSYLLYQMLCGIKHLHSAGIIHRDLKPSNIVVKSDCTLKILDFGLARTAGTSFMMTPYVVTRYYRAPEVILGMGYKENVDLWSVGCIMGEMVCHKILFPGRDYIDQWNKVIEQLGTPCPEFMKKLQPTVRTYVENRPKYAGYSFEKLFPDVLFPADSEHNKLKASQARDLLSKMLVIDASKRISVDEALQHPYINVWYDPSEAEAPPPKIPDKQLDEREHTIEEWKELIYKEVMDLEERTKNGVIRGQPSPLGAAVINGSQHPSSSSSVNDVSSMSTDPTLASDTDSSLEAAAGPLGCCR

Take `CC(C)NC(=O)c1cccc(C(=O)NCc2cnn(-c3ccc(F)c(C(F)(F)F)c3)c2)n1` [Compound 150]: under setting [1], the IC50 fell in the range of 4 to 97 nM.

As to `CC(C)NC(=O)c1cccc(C(=O)NCc2cnn(-c3ccc4nccnc4c3)c2)n1` [Compound 151], the half-maximal inhibitory concentration (IC50) runs as follows: under setting [2], 13 nM; under setting [1], 4 to 19 nM and 4 to 97 nM.

In turn, `CC(C)NC(=O)c1cccc(C(=O)NCc2cnn(-c3cncc(F)c3)c2)n1` [Compound 153] had a half-inhibitory concentration (IC50) under setting [1] of 4 to 97 nM. `CC(C)NC(=O)c1cccc(C(=O)NCc2cnn(-c3ccc([S+](C)[O-])cc3)c2)n1` (stereo not drawn) [Compound 154]: under setting [1], the IC50 lay in the range of 4 to 97 nM. On the same count and under the same terms, the value for `CC(C)NC(=O)c1cccc(C(=O)NCc2cnn(-c3cc(Br)cc(C#N)c3)c2)n1` [Compound 155] was 4 to 97 nM; that for `CC(C)NC(=O)c1cccc(C(=O)NCc2cnn(-c3ccccn3)c2)n1` [Compound 156] was 102 to 959 nM.

Turning to `CC(C)NC(=O)c1cccc(C(=O)NCc2cnn(-c3ccccc3Cl)c2)n1` [Compound 157], the IC50 under setting [1] is 102 to 959 nM.

With `CC(C)NC(=O)c1cccc(C(=O)NCc2cnn(-c3ccncc3)c2)n1` [Compound 159], the half-maximal inhibitory concentration (IC50) under setting [1] lay in the range of 102 to 959 nM.

In turn, `CC(C)NC(=O)c1cccc(C(=O)NCc2cnn(-c3ncccn3)c2)n1` [Compound 160] had an IC50 under setting [1] of 102 to 959 nM.

`CC(C)NC(=O)c1cccc(C(=O)NCc2cnn(-c3cncc(C#N)c3)c2)n1` [Compound 161] displayed an IC50 under setting [1] of 4 to 97 nM. Still for that read-out and setting: under `CC(C)NC(=O)c1cccc(C(=O)NCc2cnn(-c3cc(F)cc(C#N)c3)c2)n1` [Compound 162] stands 102 to 959 nM.

Under setting [1], `CC(C)NC(=O)c1cccc(C(=O)NCc2cnn(-c3nccs3)c2)n1` [Compound 163] yielded a half-maximal inhibitory concentration (IC50) of 102 to 959 nM.

`Cc1cccc(-c2ccc(CNC(=O)c3cccc(C(=O)NC(C)C)n3)cn2)c1` [Compound 174] yielded an IC50 under setting [1] of 102 to 959 nM. On the same count and under the same terms, under `CC(C)NC(=O)c1cccc(C(=O)NCc2ccc(-c3cccc(F)c3)nc2)n1` [Compound 175] stands 4 to 97 nM; under `CC(C)NC(=O)c1cccc(C(=O)NCc2ccc(-c3cccc(Cl)c3)nc2)n1` [Compound 176], 102 to 959 nM. The same measure, in the same setting: under `Cc1ccc(-c2ccc(CNC(=O)c3cccc(C(=O)NC(C)C)n3)cn2)cc1` [Compound 177] stands 102 to 959 nM; under `CC(C)NC(=O)c1cccc(C(=O)NCc2ccc(-c3cccc(C#N)c3)nc2)n1` [Compound 178], 102 to 959 nM.

Consider `CC(C)NC(=O)c1cccc(C(=O)NCc2ccc(-c3ccc(C#N)cc3)nc2)n1` [Compound 179], for which the 50% inhibitory concentration (IC50) under setting [1] lay within 102 to 959 nM. The same measure, in the same setting: the value for `CC(C)NC(=O)c1cccc(C(=O)NCc2ccc(-c3cccc(S(C)(=O)=O)c3)nc2)n1` [Compound 180] was 102 to 959 nM; that for `CC(C)NC(=O)c1cccc(C(=O)NCc2ccc(-c3ccc(S(C)(=O)=O)cc3)nc2)n1` [Compound 181] was 102 to 959 nM. The compound `CC(C)NC(=O)c1cccc(C(=O)NCc2ccc(-c3ccc(Cl)cc3)nc2)n1` [Compound 182] had an IC50 under setting [1] of 102 to 959 nM. As to `CC(C)NC(=O)c1cccc(C(=O)NCc2ccc(-c3cccc(C(F)(F)F)c3)nc2)n1` [Compound 183], the IC50 under setting [1] was 102 to 959 nM. Consider `CC(C)NC(=O)c1cccc(C(=O)NCc2ccc(-c3ccc(F)c(Cl)c3)nc2)n1` [Compound 184], for which, under setting [1], the 50% inhibitory concentration (IC50) lay within 102 to 959 nM. Same read-out and setting: under `CC(C)NC(=O)c1cccc(C(=O)NCc2ccc(-c3cc(Cl)cc(Cl)c3)nc2)n1` [Compound 185] stands 102 to 959 nM; under `CC(C)NC(=O)c1cccc(C(=O)NCc2ccc(-c3ccc4ncccc4c3)nc2)n1` [Compound 186], 102 to 959 nM.

Take `CC(C)NC(=O)c1cccc(C(=O)NCc2cccc(-c3cccc(C#N)c3)c2)n1` [Compound 189]: under setting [1], the IC50 lay within 4 to 97 nM.

Compound `CC(C)NC(=O)c1cccc(C(=O)NCc2cccc(-c3ccc(C#N)cc3)c2)n1` [Compound 190] showed a half-maximal inhibitory concentration (IC50) under setting [1] of 102 to 959 nM.

Under setting [1], `CC(C)NC(=O)c1cccc(C(=O)NCc2cccc(-c3cccc(S(C)(=O)=O)c3)c2)n1` [Compound 191] displayed a half-maximal inhibitory concentration (IC50) of 4 to 97 nM.

As to `CC(C)NC(=O)c1cccc(C(=O)NCc2cccc(-c3ccc(S(C)(=O)=O)cc3)c2)n1` [Compound 192], the half-maximal inhibitory concentration (IC50) under setting [1] was in the range of 4 to 97 nM. On the same count and under the same terms, the value for `CC(C)NC(=O)c1cccc(C(=O)NCc2ccc(-c3cccc(S(C)(=O)=O)c3)cc2)n1` [Compound 193] was 4 to 97 nM; that for `CC(C)NC(=O)c1cccc(C(=O)NCc2ccc(-c3cccc(C#N)c3)cc2)n1` [Compound 194] was 102 to 959 nM.

The compound `CC(C)NC(=O)c1cccc(C(=O)NCc2ccc(-c3ccc(C#N)cc3)cc2)n1` [Compound 195] gave a half-inhibitory concentration (IC50) under setting [1] of 102 to 959 nM. The same measure, in the same setting: the value for `CC(C)NC(=O)c1cccc(C(=O)NCc2ccc(-c3ccc(S(C)(=O)=O)cc3)cc2)n1` [Compound 196] was 102 to 959 nM. `CNc1nc2ccc(CNC(=O)c3cccc(C(=O)NC(C)C)n3)cc2s1` [Compound 200] showed an IC50 under setting [1] of 4 to 97 nM. The same measure, in the same setting: the value for `CC(C)NC(=O)c1cccc(C(=O)NCc2ccc3nc(NC(C)C)sc3c2)n1` [Compound 201] was 4 to 97 nM; that for `CC(C)NC(=O)c1cccc(C(=O)NCc2ccc3nc(NCCN4CCOCC4)sc3c2)n1` [Compound 202] was 4 to 97 nM; that for `CNCCNc1nc2ccc(CNC(=O)c3cccc(C(=O)NC(C)C)n3)cc2s1` [Compound 203] was 4 to 97 nM. Consider `CCOC(=O)Nc1nc2ccc(CNC(=O)c3cccc(C(=O)NC(C)C)n3)cc2s1` [Compound 205], for which the IC50 under setting [1] fell in the range of 4 to 97 nM.

Compound `CC(C)NC(=O)c1cccc(C(=O)NCc2ccc3nc(NC(=O)N(C)C)sc3c2)n1` [Compound 207] registered an IC50 under setting [1] of 4 to 97 nM. The same measure, in the same setting: under `CC(C)NC(=O)c1cccc(C(=O)NCc2cnn(-c3ccc4nccn4c3)c2)n1` [Compound 210] stands 4 to 97 nM. On to `CC(C)NC(=O)c1cccc(C(=O)NCc2cnn(-c3cnc4nccn4c3)c2)n1` [Compound 213], for which, under setting [1], the half-inhibitory concentration (IC50) lay within 102 to 959 nM. The same measure, in the same setting: the value for `CC(C)NC(=O)c1cccc(C(=O)NCc2cnn(-c3ccc4cncnc4c3)c2)n1` [Compound 216] was 4 to 97 nM. On the same count and under the same terms, the value for `CC(C)NC(=O)c1cccc(C(=O)NCc2cnn(-c3cnc4[nH]cnc4c3)c2)n1` [Compound 219] was 4 to 97 nM.

Consider `Cc1nc2ccc(-n3cc(CNC(=O)c4cccc(C(=O)NC(C)C)n4)cn3)cc2n1C(C)C` [Compound 228], for which the IC50 runs as follows: under setting [3], 8 nM; under setting [2], 8 nM; under setting [1], 4 to 97 nM and 4 to 19 nM.

For `CC(C)NC(=O)c1cccc(C(=O)NCc2cnn(-c3ccc4nc(C(F)(F)F)n(C)c4c3)c2)n1` [Compound 234], the IC50 under setting [1] is 4 to 19 nM and 4 to 97 nM.

Take `CC(C)NC(=O)c1cccc(C(=O)NCc2cnn(-c3ccc4nc(C(C)C)n(C)c4c3)c2)n1` [Compound 235]: the IC50 under setting [1] is 4 to 19 nM and 4 to 97 nM. Same read-out and setting: under `CC(C)NC(=O)c1cccc(C(=O)NCc2cnn(-c3ccc4nc(-c5cccnc5)n(C)c4c3)c2)n1` [Compound 238] stands 4 to 97 nM and 4 to 19 nM. For `CC(C)NC(=O)c1cccc(C(=O)NCc2cnn(-c3ccc(S(N)(=O)=O)cc3)c2)n1` [Compound 241], the IC50 reads like this: under setting [2], 7 nM; under setting [1], 4 to 97 nM and 4 to 19 nM.

In the case of `CNS(=O)(=O)c1ccc(-n2cc(CNC(=O)c3cccc(C(=O)NC(C)C)n3)cn2)cc1` [Compound 244], the IC50 under setting [1] is 4 to 19 nM and 4 to 97 nM.

On to `CC(C)NC(=O)c1cccc(C(=O)NCc2cnn(-c3ccc(S(=O)(=O)N4CCNCC4)cc3)c2)n1` [Compound 245], for which the IC50 under setting [1] was 4 to 19 nM and 4 to 97 nM. With `CC(C)NC(=O)c1cccc(C(=O)NCc2cnn(-c3ccc(S(=O)(=O)N(C)C)c(Cl)c3)c2)n1` [Compound 246], inhibition under setting [3] was half-maximal at 4 nM (IC50); the half-inhibitory concentration (IC50) under setting [2] was 4 nM; the IC50 under setting [1] is 4 to 19 nM and 4 nM and 4 to 97 nM. The compound `CC(C)NC(=O)c1cccc(C(=O)NCc2cnn(-c3ccc(S(=O)(=O)N4CCN(C(=O)OC(C)(C)C)CC4)c(Cl)c3)c2)n1` [Compound 247] showed an IC50 under setting [1] of 4 to 97 nM. Regarding `CC(C)NC(=O)c1cccc(C(=O)NCc2cnn(-c3ccc(S(=O)(=O)N4CCNCC4)c(Cl)c3)c2)n1` [Compound 248], the 50% inhibitory concentration (IC50) was 7 nM under setting [3]; 7 nM under setting [2]; 4 to 19 nM and 4 to 97 nM under setting [1]. On to `CC(C)NC(=O)c1cccc(C(=O)NCc2cncc(Br)c2)n1` [Compound 254], for which the concentration for half-maximal inhibition (IC50) under setting [1] lay within 102 to 959 nM. The same measure, in the same setting: under `CC(C)NC(=O)c1cccc(C(=O)NCc2cncc(-c3ccc(S(C)(=O)=O)cc3)c2)n1` [Compound 255] stands 4 to 97 nM; under `CC(C)NC(=O)c1cccc(C(=O)NCc2cncc(-c3cccc(S(C)(=O)=O)c3)c2)n1` [Compound 256], 4 to 97 nM; under `CC(C)NC(=O)c1cccc(C(=O)NCc2cncc(-c3ccc(C#N)cc3)c2)n1` [Compound 257], 4 to 97 nM. Same read-out and setting: the value for `CC(C)NC(=O)c1cccc(C(=O)NCc2cncc(-c3cccc(C#N)c3)c2)n1` [Compound 258] was 4 to 97 nM. Same read-out and setting: the value for `Nc1nc2ccc(CNC(=O)c3cccc(Cl)n3)cc2s1` [Compound 261] was above 1000 nM. `Nc1nc2ccc(CNC(=O)c3cccc(NCc4ccccc4)n3)cc2s1` [Compound 263]: the IC50 under setting [1] was above 1000 nM. On the same count and under the same terms, the value for `Nc1nc2ccc(CNC(=O)c3cccc(-n4cccn4)n3)cc2s1` [Compound 264] was 102 to 959 nM.

A word on the IC50: it is the midpoint of a concentration-inhibition curve.
